How the values were obtained:
[1] = rodents; cited from earlier work
[2] = tested on: 5HT reuptake; conditions: in therapeutic models; cited from earlier work
[3] = Comparative equilibrium solubility of salts of compound 1; conditions: pH printed beside the equilibrium solubility
[4] = biological target: D2 receptors (Homo sapiens, UniProt P14416); conditions: in therapeutic models; cited from earlier work
[5] = in vivo; cited from earlier work

D2 receptors, sequence (P14416 whole entry): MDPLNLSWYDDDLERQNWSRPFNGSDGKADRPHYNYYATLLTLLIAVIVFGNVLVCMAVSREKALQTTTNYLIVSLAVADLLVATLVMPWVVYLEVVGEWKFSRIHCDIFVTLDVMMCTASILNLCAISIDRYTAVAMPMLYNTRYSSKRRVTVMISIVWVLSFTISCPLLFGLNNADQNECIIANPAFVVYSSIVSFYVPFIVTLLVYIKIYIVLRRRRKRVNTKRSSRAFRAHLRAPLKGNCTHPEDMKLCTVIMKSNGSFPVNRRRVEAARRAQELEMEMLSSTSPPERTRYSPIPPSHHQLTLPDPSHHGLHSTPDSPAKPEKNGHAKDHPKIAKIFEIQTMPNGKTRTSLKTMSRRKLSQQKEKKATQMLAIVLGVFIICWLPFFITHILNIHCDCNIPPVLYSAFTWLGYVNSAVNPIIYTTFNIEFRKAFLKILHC

SMILES: CC1Oc2c(cccc2N2CCN(CCCc3c[nH]c4ccc(F)cc34)CC2)NC1=O (stereo not drawn) [compound 1, 8-{4-[3-(5-fluoro-1H-indol-3-yl)-propyl]-piperazin-1-yl}-2-methyl-4H-benzo[1,4]oxazin-3-one]
- propensity to induce catalepsy [1]: low propensity
- activity against 5HT reuptake [2]: inhibitory activity
- pH ([3]; listed as freebase (1)): 4.72
- activity at D2 receptors [4]: antagonistic activity
- activity in therapeutic models sensitive to clinically relevant antipsychotics, antidepressants, anxiolytics, Parkinson's disease [5]: active

SMILES: CC1Oc2c(cccc2N2CCN(CCCc3c[nH]c4ccc(F)cc34)CC2)NC1=O (stereo not drawn) [compound 2]
- pH ([3]; listed as glucuronate (2)): 4.25

— US7595310B2, “Glucuronate salt of a piperazine compound” (Solvay Pharmaceuticals, B.V., priority 2005, dated 2009)
